The values below are quoted from earlier work in patent US7333894B2, “Methods for the diagnosis of hemodialysis patients and utilization of such methods to improve the administration of intravenous levocarnitine treatments to hemodialysis patients” (Sigma-Tau Pharmaceuticals, Inc., priority 2002, dated 2008).

For data set [1] the following is noted: hemodialysis patient, one dialysis session.
The conditions of data set [2]: intravenous administration at the end of a dialysis session, ESRD patients.

In the case of `C[N+](C)(C)C[C@H](O)CC(=O)[O-]` [carnitine, levocarnitine], the “carnitine present in the plasma removed during a dialysis session” value in data set [1] is “more than 70%”. Also, the “time for plasma carnitine levels to return to pre-dialysis baseline levels” value in data set [2] was 10 to 24 h.
